These results are taken from patent publication US10179771B2 (GALAPAGOS NV, priority 2014, dated 2019).

In this assay the target is T1, Recombinant human JAK1 catalytic domain (Homo sapiens, UniProt P23458).
T1 construct: Recombinant human JAK1 (catalytic domain, amino acids 866-1154; catalog number PV4774); purchased Invitrogen PV4774
Put plainly: JAK1 inhibition assay (polyGT substrate / Ulight-JAK1 peptide assay). Format: biochemical. How it is done:
Recombinant human JAK1 catalytic domain (amino acids 850-1154; catalog number 08-144) was purchased from Carna Biosciences. 10 ng of JAK1 is incubated with 12.5 μg polyGT substrate (Sigma catalog number P0275) in kinase reaction buffer (15 mM Tris-HCl pH 7.5, 1 mM DTT, 0.01% Tween-20, 10 mM MgCl2, 2 μM non-radioactive ATP, 0.25 ρCi ^33P-gamma-ATP (GE Healthcare, catalog number AH9968) final concentrations) with or without 5 μL containing test compound or vehicle (DMSO, 1% final concentration), in a total volume of 25 μL, in a polypropylene 96-well plate (Greiner, V-bottom). After 45 min at 30° C., reactions are stopped by adding of 25 μL/well of 150 mM phosphoric acid. All of the terminated kinase reaction is transferred to prewashed (75 mM phosphoric acid) 96 well filter plates (Perkin Elmer catalog number 6005177) using a cell harvester (Perkin Elmer). Plates are washed 6 times with 300 μL per well of a 75 mM phosphoric acid solution and the bottom of the plates is sealed. 40 μL/well of Microscint-20 is added, the top of the plates is sealed and readout is performed using the Topcount (Perkin Elmer). Kinase activity is calculated by subtracting counts per min (cpm) obtained in the presence of a positive control inhibitor (10 μM staurosporine) from cpm obtained in the presence of vehicle. The ability of a test compound to inhibit this activity is determined as:
[formula] • RFU test compound=RFU determined for sample with test compound present • RFU control=RFU determined for sample with positive control inhibitor • RFU vehicle=RFU determined in the presence of vehicle
Dose dilution series are prepared for the compounds enabling the testing of dose-response effects in the JAK1 assay and the calculation of the IC50 for each compound. Each compound is routinely tested at concentration of 20 μM followed by a 1/3 serial dilution, 8 points (20 μM-6.67 μM-2.22 μM-740 nM-247 nM-82 nM-27 nM-9 nM) in a final concentration of 1% DMSO. When potency of compound series increased, more dilutions are prepared and/or the top concentration was lowered (e.g. 5 μM, 1 μM).
Recombinant human JAK1 (catalytic domain, amino acids 866-1154; catalog number PV4774) was purchased from Invitrogen. 1 ng of JAK1 was incubated with 20 nM Ulight-JAK1 (tyr1023) peptide (Perkin Elmer catalog number TRF0121) in kinase reaction buffer (25 mM MOPS pH6.8, 0.01% Brij-35, 5 mM MgCl2, 2 mM DTT, 7 μM ATP) with or without 4 μL containing test compound or vehicle (DMSO, 1% final concentration), in a total volume of 20 μL, in a white 384 Opti plate (Perkin Elmer, catalog number 6007290). After 60 min at room temperature, reactions were stopped by adding 20 μL/well of detection mixture (1× detection buffer (Perkin Elmer, catalog number CR97-100C), 0.5 nM Europium-anti-phosphotyrosine (PT66) (Perkin Elmer, catalog number AD0068), 10 mM EDTA). Readout is performed using the Envision with excitation at 320 nm and measuring emission at 615 nm (Perkin Elmer). Kinase activity was calculated by subtracting relative fluorescence units (RFU) obtained in the presence of a positive control inhibitor (10 μM staurosporine) from RFU obtained in the presence of vehicle. The ability of a test compound to inhibit this activity was determined as: Percentage inhibition=((RFU determined for sample with test compound present−RFU determined for sample with positive control inhibitor) divided by (RFU determined in the presence of vehicle−RFU determined for sample with positive control inhibitor))*100.
Dose dilution series were prepared for the compounds enabling the testing of dose-response effects in the JAK1 assay and the calculation of the IC50 for the compound. Each compound is routinely tested at concentration of 20 μM followed by a 1/5 serial dilution, 10 points in a final concentration of 1% DMSO. When potency of compound series increases, more dilutions are prepared and/or the top concentration are lowered (e.g. 5 μM, 1 μM). […]

Where [1] appears, read: Illustrative Compounds of the invention (Table V).
Where [2] appears, read: Comparative Compounds (Table VI).

T1 sequence (P23458 866-1154): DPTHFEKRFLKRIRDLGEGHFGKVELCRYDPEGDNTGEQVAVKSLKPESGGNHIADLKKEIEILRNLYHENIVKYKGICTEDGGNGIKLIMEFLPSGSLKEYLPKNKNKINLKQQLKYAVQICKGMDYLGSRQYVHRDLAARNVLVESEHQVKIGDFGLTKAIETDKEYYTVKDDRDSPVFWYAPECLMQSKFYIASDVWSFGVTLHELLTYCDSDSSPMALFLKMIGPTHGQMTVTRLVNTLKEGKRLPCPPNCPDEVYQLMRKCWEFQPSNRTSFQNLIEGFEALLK

For orientation: IC50 means the concentration that inhibits the measured activity by half. On to `CN(c1cc(NC(=O)[C@H]2C[C@H]2F)c2ncn(C)c2c1)c1ccc(C#N)cc1F` [Cpd 15, (1R,2R)-N-[6-(4-cyano-2-fluoro-N-methyl-anilino)-1-methyl-benzimidazol-4-yl]-2-fluoro-cyclopropanecarboxamide], for which the IC50 under setting [1] lay in the range of 0.1 to 50 nM.

With `CN(c1ccc2ncn(C)c2c1)c1ccc(C#N)cc1F` [C, 3-fluoro-4-[methyl-(3-methylbenzimidazol-5-yl)amino]benzonitrile, reference compound], under setting [2], the IC50 is greater than 500 nM.

For `Cc1cc(C#N)ncc1N(C)c1cc(NC(=O)[C@H]2C[C@H]2F)c2ncn(C)c2c1` [Cpd 9, (1R,2R)-N-(6-((6-cyano-4-methylpyridin-3-yl)(methyl)amino)-1-methyl-1H-benzo[d]imidazol-4-yl)-2-fluorocyclopropanecarboxamide], the concentration for half-maximal inhibition (IC50) under setting [1] lay in the range of 0.1 to 50 nM.

For the compound `CNC(=O)Nc1cc(Oc2cnc(C#N)cc2C)cc2c1ncn2C`, the IC50 under setting [1] is 0.1 to 50 nM.

For the compound `Cc1cc(C#N)ncc1Oc1cc(NC(=O)[C@H]2C[C@H]2F)c2ncn(C)c2c1` [Cpd 20, (1R,2R)-N-[6-[(6-cyano-4-methyl-3-pyridyl)oxy]-1-methyl-benzimidazol-4-yl]-2-fluoro-cyclopropanecarboxamide], the IC50 under setting [1] is 0.1 to 50 nM.

For the compound `CCc1cc(C#N)cc(F)c1N(C)c1cc(NC(=O)[C@@H]2C[C@@H]2F)c2ncn(C)c2c1` (racemic) [Cpd 7, N-(6-((4-cyano-2-ethyl-6-fluorophenyl)(methyl)amino)-1-methyl-1H-benzo[d]imidazol-4-yl)-2-fluorocyclopropanecarboxamide (1S,2S)/(1R,2R) racemic mixture], under setting [1], the IC50 lay within 0.1 to 50 nM.

For `CCc1cc(C(N)=O)ncc1N(C)c1cc(NC(=O)[C@H]2C[C@H]2F)c2ncn(C)c2c1` [Cpd 25, 4-ethyl-5-((4-((1R,2R)-2-fluorocyclopropanecarboxamido)-1-methyl-1H-benzo[d]imidazol-6-yl)(methyl)amino)picolinamide], under setting [1], the IC50 is 0.1 to 50 nM.

Consider `Cc1cc(C#N)nc(F)c1N(C)c1cc(NC(=O)[C@H]2C[C@H]2F)c2ncn(C)c2c1` [Cpd 21, (1R,2R)-N-[6-[(6-cyano-2-fluoro-4-methyl-3-pyridyl)-methyl-amino]-1-methyl-benzimidazol-4-yl]-2-fluoro-cyclopropanecarboxamide], for which the 50% inhibitory concentration (IC50) under setting [1] was 0.1 to 50 nM.

Consider `CN(c1cc2c(cn1)ncn2C)c1ccc(C#N)cc1F` [D, reference compound], for which, under setting [2], the IC50 is greater than 500 nM.

For `CNc1cc(Oc2cnc(C#N)cc2C)cc2c1ncn2C` [Cpd 34, 4-methyl-5-[3-methyl-7-(methylamino)benzimidazol-5-yl]oxy-pyridine-2-carbonitrile], under setting [1], the 50% inhibitory concentration (IC50) lay within 100 to 500 nM.

For the compound `Cc1cc(S(C)(=O)=O)ccc1N(C)c1cc(NC(=O)[C@H]2C[C@H]2F)c2ncn(C)c2c1` [Cpd 26, (1R,2R)-N-[6-(N,2-dimethyl-4-methylsulfonyl-anilino)-1-methyl-benzimidazol-4-yl]-2-fluoro-cyclopropanecarboxamide], the half-inhibitory concentration (IC50) under setting [1] fell in the range of 0.1 to 50 nM.

Regarding `CCc1cc(C#N)cc(F)c1N(C)c1cc(NC(=O)C2CC2)c2ncn(C)c2c1` [Cpd 3, N-(6-((4-cyano-2-ethyl-6-fluorophenyl)(methyl)amino)-1-methyl-1H-benzo[d]imidazol-4-yl)cyclopropanecarboxamide], under setting [1], the IC50 was in the range of 0.1 to 50 nM.

In the case of `Cc1cc(C#N)ncc1Oc1cc(NC(=O)N2CC(O)C2)c2ncn(C)c2c1` [Cpd 36, N-[6-[(6-cyano-4-methyl-3-pyridyl)oxy]-1-methyl-benzimidazol-4-yl]-3-hydroxy-azetidine-1-carboxamide], under setting [1], the IC50 is greater than 500 nM.
